Experiment [1] has as its target T1, Myostatin (Homo sapiens, UniProt O14793).
T1 construct: active myostatin (also called mature myostatin) is a homodimer consisting of two C-terminal growth factor domains; purchased R&D systems 788-G8/CF
T1 sequence (O14793 267-375): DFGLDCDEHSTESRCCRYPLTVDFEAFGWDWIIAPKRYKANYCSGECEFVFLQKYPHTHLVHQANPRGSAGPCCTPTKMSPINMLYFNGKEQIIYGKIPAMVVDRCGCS
The experiment is described as follows: HepG2 reporter gene assay, Evaluation Procedure (2): 2-concentrations assay, myostatin inhibition. The format is cell-based. In outline:
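HepG2 cells (HB-8065, ATCC) carrying the transfected pGL3(CAGA)12-luc reporter plasmid were treated with myostatin (788-G8/CF, R&D systems) at a final concentration of 10 ng/mL plus peptide and incubated at 37°C, 5% CO2 for 20 to 24 hours. Luminescence was read after adding PBS mixed 1:1 with One-Glo substrate, and inhibition rate was calculated.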
(Reporter assays use an easily measured gene product as a stand-in for the process of interest.)

Experiment [2] deals with T2, GDF-11 (Homo sapiens, UniProt O95390).
T2 construct: purchased R&D systems 1958-GD-G8/CF
T2 sequence (O95390 299-407): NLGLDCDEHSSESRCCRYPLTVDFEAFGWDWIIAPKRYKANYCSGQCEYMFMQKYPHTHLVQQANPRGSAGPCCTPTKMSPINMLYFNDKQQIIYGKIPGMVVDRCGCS
The experiment is described as follows: HepG2 reporter gene assay, Evaluation Procedure (2): 2-concentrations assay, GDF-11 inhibition. The format is cell-based. In outline:
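HepG2 cells carrying the transfected pGL3(CAGA)12-luc reporter, a pGL3 vector with luciferase placed downstream of 12 CAGA repeats, were stimulated with GDF-11 at a final 10 ng/mL together with test peptide. Blank wells received no GDF-11 and no peptide. Plates were incubated 20 to 24 hours at 37°C with 5% CO2. Luminescence from One-Glo substrate was read to calculate percent inhibition.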

Where [3] appears, read: Table 7-3/7-4, myostatin 10 ng/mL, peptide at the higher of the 2 concentrations, HepG2, read-out: inhibition rate (myostatin inhibition assay).
Setting [4] is: Table 7-3/7-4, myostatin 10 ng/mL, peptide at the lower of the 2 concentrations, HepG2, read-out: inhibition rate (myostatin inhibition assay).
Where [5] appears, read: HepG2, first GDF-11 column of Table 7-3/7-4, GDF-11 10 ng/mL, peptide at the lower of the 2 concentrations, read-out: inhibition rate (GDF-11 inhibition assay).
Setting [6] is: HepG2, second GDF-11 column of Table 7-3/7-4, GDF-11 10 ng/mL, peptide at the higher of the 2 concentrations, read-out: inhibition rate (GDF-11 inhibition assay).
The mark [7] stands for this setting: HepG2, read-out: inhibition rate (myostatin inhibition assay).

Read-outs that look alike come from different tables or passages of the source. Starred links: 1 amine or outer side, 2 acyl side, 3 side chain; linkers in the order of their positions; H or OH if unused. Positions of bridges follow the written chain, without caps; N, C: chain ends. Non-standard residues stand in square brackets, D forms with d. Residues, ends and D or L forms follow the SMILES beside them. *: point of attachment. X6 = CS(=O)(=O)c1ccc(-c2ccc(C[C@H](N[*:1])C(=O)[*:2])cc2)cc1; Phe(3-OCH2COOH) = N[C@@H](Cc1cccc(OCC(=O)O)c1)C(=O)O; Trp(1-Ph) = N[C@@H](Cc1cn(-c2ccccc2)c2ccccc12)C(=O)O; NMePhe(3-Ph) = CN[C@@H](Cc1cccc(-c2ccccc2)c1)C(=O)O; Phe(4-COOH) = N[C@@H](Cc1ccc(C(=O)O)cc1)C(=O)O; Trp(6-aza) = N[C@@H](Cc1c[nH]c2cnccc12)C(=O)O; Piperazinyl(4-CH2COOH) = O=C(O)CN1CCN(*)CC1; Piperidinyl(4-CH2COOH) = O=C(O)CC1CCN(*)CC1; Gly(decyl) = CCCCCCCCCC[C@H](N)C(=O)O; NMeF = CN[C@@H](Cc1ccccc1)C(=O)O; NMeE = CN[C@@H](CCC(=O)O)C(=O)O; Cha = N[C@@H](CC1CCCCC1)C(=O)O; NMeA = CN[C@@H](C)C(=O)O; NPrGly = CCCNCC(=O)O; NEtG = CCNCC(=O)O; Sar = CNCC(=O)O

With `CCCCCCCCCC[C@@H]1NC(=O)[C@H](Cc2ccccc2)N(C)C(=O)[C@H](CCCNC(=N)N)NC(=O)[C@H](Cc2ccc(C(=O)O)cc2)NC(=O)[C@H](Cc2cccc(OCC(=O)O)c2)NC(=O)[C@H]2CCCN2C(=O)[C@H]([C@@H](C)CC)NC(=O)[C@H](Cc2ccccc2)N(C)C(=O)[C@H](Cc2ccc(O)cc2)NC(=O)[C@H](Cc2cn(-c3ccccc3)c3ccccc23)NC(=O)[C@H](C)NC(=O)[C@H](C)NC(=O)CSC[C@H](C(=O)N2CCN(CC(=O)O)CC2)NC(=O)[C@H](Cc2cccc(-c3ccccc3)c2)N(C)C(=O)[C@H](CCC(=O)O)N(C)C1=O` [Myostatin_99_v331] ({CH2CO}-AA[Trp(1-Ph)]Y[NMeF]I[dP][Phe(3-OCH2COOH)][Phe(4-COOH)]R[NMeF][Gly(decyl)][NMeE][NMePhe(3-Ph)][dC]-{Piperazinyl(4-CH2COOH)}; thioether N-15), in experiment [1] (setting [3]), the inhibition at 0.1 µM is 100%. The inhibition at 0.03 µM in experiment [1] (setting [4]) came out at 100%. In addition, the inhibition in experiment [2] (setting [5]) and in experiment [2] (setting [6]) was 0% each time.

Consider `CCCCCCCCCC[C@@H]1NC(=O)[C@H](CC2CCCCC2)NC(=O)[C@H](CCCNC(=N)N)NC(=O)[C@H](Cc2ccc(C(=O)O)cc2)NC(=O)[C@H](Cc2cccc(OCC(=O)O)c2)NC(=O)[C@H](C)N(C)C(=O)[C@H]([C@@H](C)CC)NC(=O)[C@H](Cc2ccccc2)N(C)C(=O)[C@H](Cc2ccc(O)cc2)NC(=O)[C@H](Cc2cn(-c3ccccc3)c3ccccc23)NC(=O)[C@H](C)NC(=O)[C@H](C)NC(=O)CSC[C@H](C(=O)N2CCN(CC(=O)O)CC2)NC(=O)[C@H](Cc2cccc(-c3ccccc3)c2)N(C)C(=O)[C@H](CCC(=O)O)N(C)C1=O` [Myostatin_99_v332] ({CH2CO}-AA[Trp(1-Ph)]Y[NMeF]I[NMeA][Phe(3-OCH2COOH)][Phe(4-COOH)]R[Cha][Gly(decyl)][NMeE][NMePhe(3-Ph)][dC]-{Piperazinyl(4-CH2COOH)}; thioether N-15), for which, in experiment [1] (setting [3]), the inhibition at 0.1 µM was found to be 100%. Further, in experiment [1] (setting [4]), the inhibition at 0.03 µM stood at 100%. In addition, the inhibition in experiment [2] (setting [5]) and in experiment [2] (setting [6]) was 0% each time.

For `CCCCCCCCCC[C@@H]1NC(=O)[C@H](CC2CCCCC2)NC(=O)[C@H](CCCNC(=N)N)NC(=O)[C@H](Cc2ccc(C(=O)O)cc2)NC(=O)[C@H](Cc2cccc(OCC(=O)O)c2)NC(=O)[C@H](C)N(C)C(=O)[C@H]([C@@H](C)CC)NC(=O)[C@H](Cc2ccccc2)N(C)C(=O)[C@H](Cc2ccc(O)cc2)NC(=O)[C@H](Cc2cn(-c3ccccc3)c3ccccc23)NC(=O)[C@H](C)NC(=O)[C@H](C)NC(=O)CSC[C@H](C(=O)N2CCN(CC(=O)O)CC2)NC(=O)[C@H](Cc2ccccc2)N(C)C(=O)[C@H](CCC(=O)O)N(C)C1=O` [Myostatin_99_v333] ({CH2CO}-AA[Trp(1-Ph)]Y[NMeF]I[NMeA][Phe(3-OCH2COOH)][Phe(4-COOH)]R[Cha][Gly(decyl)][NMeE][NMeF][dC]-{Piperazinyl(4-CH2COOH)}; thioether N-15), in experiment [1] (setting [3]), the inhibition at 0.1 µM was determined as 100%. Moreover, the inhibition at 0.03 µM in experiment [1] (setting [4]) came to 100%. Besides, the values for the inhibition in experiment [2] (setting [5]) and in experiment [2] (setting [6]) were 0% and 34%, respectively.

As to `CCCCCCCCCC[C@@H]1NC(=O)[C@H](Cc2ccccc2)N(C)C(=O)[C@H](CCCNC(=N)N)NC(=O)[C@H](Cc2ccc(C(=O)O)cc2)NC(=O)[C@H](Cc2cccc(OCC(=O)O)c2)NC(=O)CN(CCC)C(=O)[C@H]([C@@H](C)CC)NC(=O)[C@H](Cc2ccccc2)N(C)C(=O)[C@H](Cc2ccc(O)cc2)NC(=O)[C@H](Cc2c[nH]c3ccccc23)NC(=O)[C@H](C)NC(=O)[C@H](C)NC(=O)CSC[C@H](C(=O)N2CCC(CC(=O)O)CC2)NC(=O)[C@H](Cc2ccccc2)N(C)C(=O)[C@H](CCC(=O)O)N(C)C1=O` [Myostatin_99_v334] ({CH2CO}-AAWY[NMeF]I[NPrGly][Phe(3-OCH2COOH)][Phe(4-COOH)]R[NMeF][Gly(decyl)][NMeE][NMeF][dC]-{Piperidinyl(4-CH2COOH)}; thioether N-15), the inhibition at 0.1 µM in experiment [1] (setting [3]) was 99%. Further, the inhibition at 0.03 µM in experiment [1] (setting [4]) amounted to 90%. The inhibition in experiment [2] (setting [5]) and in experiment [2] (setting [6]) was 0% each time.

As to `CCCCCCCCCC[C@@H]1NC(=O)[C@H](Cc2ccccc2)N(C)C(=O)[C@H](CCCNC(=N)N)NC(=O)[C@H](Cc2ccc(C(=O)O)cc2)NC(=O)[C@H](Cc2cccc(OCC(=O)O)c2)NC(=O)CN(CC)C(=O)[C@H]([C@@H](C)CC)NC(=O)[C@H](Cc2ccccc2)N(C)C(=O)[C@H](Cc2ccc(O)cc2)NC(=O)[C@H](Cc2c[nH]c3ccccc23)NC(=O)[C@H](C)NC(=O)[C@H](C)NC(=O)CSC[C@H](C(=O)N2CCC(CC(=O)O)CC2)NC(=O)[C@H](Cc2ccccc2)N(C)C(=O)[C@H](CCC(=O)O)N(C)C1=O` [Myostatin_99_v336] ({CH2CO}-AAWY[NMeF]I[NEtG][Phe(3-OCH2COOH)][Phe(4-COOH)]R[NMeF][Gly(decyl)][NMeE][NMeF][dC]-{Piperidinyl(4-CH2COOH)}; thioether N-15), the inhibition at 0.1 µM in experiment [1] (setting [3]) was determined as 100%. Also, the inhibition at 0.03 µM in experiment [1] (setting [4]) amounted to 99%. For the same compound, the inhibition in experiment [2] (setting [5]) and in experiment [2] (setting [6]) was 0% throughout.

Consider `CCCCCCCCCC[C@@H]1NC(=O)[C@H](Cc2ccccc2)N(C)C(=O)[C@H](CCCNC(=N)N)NC(=O)[C@H](Cc2ccc(C(=O)O)cc2)NC(=O)[C@H](Cc2cccc(OCC(=O)O)c2)NC(=O)CN(CCC)C(=O)[C@H]([C@@H](C)CC)NC(=O)[C@H](Cc2ccccc2)N(C)C(=O)[C@H](Cc2ccc(O)cc2)NC(=O)[C@H](Cc2c[nH]c3cnccc23)NC(=O)[C@H](C)NC(=O)[C@H](C)NC(=O)CSC[C@H](C(=O)N2CCC(CC(=O)O)CC2)NC(=O)[C@H](Cc2ccccc2)N(C)C(=O)[C@H](CCC(=O)O)N(C)C1=O` [Myostatin_99_v337] ({CH2CO}-AA[Trp(6-aza)]Y[NMeF]I[NPrGly][Phe(3-OCH2COOH)][Phe(4-COOH)]R[NMeF][Gly(decyl)][NMeE][NMeF][dC]-{Piperidinyl(4-CH2COOH)}; thioether N-15), for which the inhibition at 0.1 µM in experiment [1] (setting [3]) is 96%. In addition, the inhibition at 0.03 µM in experiment [1] (setting [4]) was 82%. Moreover, the inhibition in experiment [2] (setting [5]) and in experiment [2] (setting [6]) was 0% throughout.

As to `CCCCCCCCCC[C@@H]1NC(=O)[C@H](Cc2ccccc2)N(C)C(=O)[C@H](CCCNC(=N)N)NC(=O)[C@H](Cc2ccc(C(=O)O)cc2)NC(=O)[C@H](Cc2cccc(OCC(=O)O)c2)NC(=O)CN(C)C(=O)[C@H]([C@@H](C)OC)NC(=O)[C@H](Cc2ccccc2)N(C)C(=O)[C@H](Cc2ccc(O)cc2)NC(=O)[C@H](Cc2c[nH]c3ccccc23)NC(=O)[C@H](C)NC(=O)[C@H](C)NC(=O)CSC[C@H](C(=O)N2CCC(CC(=O)O)CC2)NC(=O)[C@H](Cc2ccccc2)N(C)C(=O)[C@H](CCC(=O)O)N(C)C1=O` [Myostatin_99_v340] ({CH2CO}-AAWY[NMeF]T(Me)[Sar][Phe(3-OCH2COOH)][Phe(4-COOH)]R[NMeF][Gly(decyl)][NMeE][NMeF][dC]-{Piperidinyl(4-CH2COOH)}; thioether N-15), in experiment [1] (setting [3]), the inhibition at 0.1 µM came to 100%. In experiment [1] (setting [4]), the inhibition at 0.03 µM was 95%. Moreover, the inhibition in experiment [2] (setting [5]) and in experiment [2] (setting [6]) was 0% throughout.

Regarding `CCCCCCCCCC[C@@H]1NC(=O)[C@H](Cc2ccccc2)N(C)C(=O)[C@H](CCCNC(=N)N)NC(=O)[C@H](Cc2ccc(C(=O)O)cc2)NC(=O)[C@H](Cc2cccc(OCC(=O)O)c2)NC(=O)[C@H]2CCCN2C(=O)[C@H]([C@@H](C)CC)NC(=O)[C@H](Cc2ccccc2)N(C)C(=O)[C@H](Cc2ccc(O)cc2)NC(=O)[C@H](Cc2ccc(-c3ccc(S(C)(=O)=O)cc3)cc2)NC(=O)[C@H](C)NC(=O)[C@H](C)NC(=O)CSC[C@H](C(=O)N2CCC(CC(=O)O)CC2)NC(=O)[C@H](Cc2ccccc2)N(C)C(=O)[C@H](CCC(=O)O)N(C)C1=O` [Myostatin_99_v342] ({CH2CO}-AA[X6]Y[NMeF]I[dP][Phe(3-OCH2COOH)][Phe(4-COOH)]R[NMeF][Gly(decyl)][NMeE][NMeF][dC]-{Piperidinyl(4-CH2COOH)}; thioether N-15), in experiment [1] (setting [7]), the inhibition at 0.03 µM turned out to be 100% and the inhibition at 0.1 µM amounted to 100%. The inhibition in experiment [2] (HepG2, read-out: inhibition rate (GDF-11 inhibition assay), Table 7-3/7-4, GDF-11 10 ng/mL, peptide at the higher of the 2 concentrations) stood at 47%. Besides, the inhibition in experiment [2] (HepG2, read-out: inhibition rate (GDF-11 inhibition assay), Table 7-3/7-4, GDF-11 10 ng/mL, peptide at the lower of the 2 concentrations) was determined as 0%.

The values above are taken from patent EP4786487A1, “PEPTIDE” (Peptidream Inc, priority 2023, dated 2025).
